Assay results: PubChem BioAssay (NCI)
“And” between values parts separate entries of the source, which are not always exact repeats. Equal entries are not always repeated.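 Grown in 96-well plates, cells were treated for 48 hours with each compound at five concentrations. Insufficient inhibition: endpoint recorded as highest concentration tested. The concentration for 50% growth inhibition is given as GI50. TGI: concentration producing complete growth inhibition.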

What was measured:
Experiment in all cases: growth of human tumour cells (NCI), 48 h
NCI-H226 lung = system: NCI-H226 lung
HCT-15 colon = system: HCT-15 colon
U251 CNS = system: U251 CNS
NCI-H522 lung = system: NCI-H522 lung
HT29 colon = system: HT29 colon
MDA-MB-435 = system: MDA-MB-435
PC-3 prostate = system: PC-3 prostate
M14 melanoma = system: M14 melanoma
SF-268 CNS = system: SF-268 CNS
SK-OV-3 ovarian = system: SK-OV-3 ovarian

| Structure (SMILES) | GI50 (NCI-H226 lung) | TGI (NCI-H226 lung) | GI50 (HCT-15 colon) | TGI (HCT-15 colon) | GI50 (U251 CNS) | TGI (U251 CNS) | GI50 (NCI-H522 lung) | TGI (NCI-H522 lung) | GI50 (HT29 colon) | TGI (HT29 colon) | GI50 (MDA-MB-435) | TGI (MDA-MB-435) | GI50 (PC-3 prostate) | TGI (PC-3 prostate) | GI50 (M14 melanoma) | TGI (M14 melanoma) | GI50 (SF-268 CNS) | TGI (SF-268 CNS) | GI50 (SK-OV-3 ovarian) | TGI (SK-OV-3 ovarian) |
| --- | --- | --- | --- | --- | --- | --- | --- | --- | --- | --- | --- | --- | --- | --- | --- | --- | --- | --- | --- | --- |
| Cn1cc(C2=C(c3cccc(Br)c3)C(=O)NC2=O)c2ccccc21 | 10.4 µM | > 25 µM | 9.24 µM | > 25 µM | 12.3 µM | > 25 µM | 10.4 µM | > 25 µM | > 15 µM | > 25 µM | 5.82 µM | > 25 µM | 8.53 µM | > 25 µM | 17.1 µM | > 25 µM | 15.5 µM | > 25 µM | 10.3 µM | > 25 µM |
| Cc1cc(C)c(/C=C2\C(=O)Nc3ccc(NC(=O)CCCCCCC(=O)NO)cc32)[nH]1 | > 100 µM | > 100 µM | > 100 µM | > 100 µM | 0.529 µM | 10.4 µM | 0.208 µM | 1.82 µM | 0.859 µM | > 100 µM | 0.44 µM | > 100 µM | 0.684 µM | > 100 µM | 0.75 µM | > 100 µM | 1.62 µM | > 100 µM | 0.664 µM | 4.56 µM |
| CSc1ccc2c(c1)C(=O)c1c-2n(CCCBr)c(=O)c2cc([N+](=O)[O-])ccc12 | 33.6 µM | > 100 µM | 47.2 µM | > 100 µM | 1.98 µM | > 100 µM | 5.32 µM | 97.4 µM | 28.2 µM | > 100 µM | 31 µM | > 100 µM | 25.8 µM | > 100 µM | 3.38 µM | > 100 µM | 7.42 µM | > 100 µM | 12.1 µM | > 100 µM |
| C=C1C(=O)OC2CC(C)C3(O)CCC(=O)C3(C)CC12 (centres undefined) | – | > 100 µM | – | 28.1 µM | – | > 100 µM | – | 30.3 µM | – | 43.4 µM | – | > 100 µM | – | > 100 µM | – | 55.6 µM | – | 64.5 µM | – | > 100 µM |
| Cc1cc(C)c(NC(=O)c2sc3nc4c(cc3c2N)CN(Cc2ccccc2)CC4)c(C)c1 | 4.69 µM | > 100 µM | 2.12 µM | > 100 µM | 4.35 µM | 24.2 µM | 1.6 µM | 6.82 µM | 2.88 µM | 13.2 µM | 0.399 µM | 4.38 µM | 3.13 µM | > 100 µM | 2.89 µM | 31.5 µM | 6.93 µM | 64.8 µM | 5.35 µM | > 100 µM |
| C#COc1cccc(Nc2c(C#N)cnc3ncc(NC(=O)CCl)cc23)c1 | > 62.5 µM | > 62.5 µM | > 62.5 µM | > 62.5 µM | 12.5 µM | 53.6 µM | 9.77 µM | 21.4 µM | 21.8 µM | > 62.5 µM | > 62.5 µM | > 62.5 µM | 32.5 µM | > 62.5 µM | > 62.5 µM | > 62.5 µM | 20.6 µM | > 62.5 µM | > 62.5 µM | > 62.5 µM |
| N=C(N)c1ccc2nc(-c3cc(CC(=O)N[C@@H](CC(=O)O)C(=O)O)cc(-c4cc(S(N)(=O)=O)ccc4O)c3O)[nH]c2c1 | > 100 µM | > 100 µM | > 100 µM | > 100 µM | > 100 µM | > 100 µM | > 100 µM | > 100 µM | > 100 µM | > 100 µM | > 100 µM | > 100 µM | > 100 µM | > 100 µM | > 100 µM | > 100 µM | > 100 µM | > 100 µM | > 100 µM | > 100 µM |
| N#Cc1c(N/N=C/c2ccc(Cl)cc2Cl)nc(N)nc1N1CCCC1 | 15.7 µM | > 100 µM | 19.3 µM | > 100 µM | 9.02 µM | 23.4 µM | 28.9 µM | > 100 µM | 37.1 µM | > 100 µM | 62.2 µM | > 100 µM | 12.2 µM | 38.4 µM | 44.2 µM | > 100 µM | 68.3 µM | > 100 µM | 47.8 µM | > 100 µM |
| CCOC(=O)/C=C(/C)Sc1cc(O)c2ccccc2c1O | 14.5 µM | 32.8 µM | 2.54 µM | 8.83 µM | 4.31 µM | 24 µM | 1.73 µM | 4.66 µM | 19.2 µM | 48.4 µM | 1.75 µM | 3.28 µM | 4.59 µM | 22.8 µM | 1.76 µM | 3.48 µM | 4.24 µM | 14.6 µM | 13.8 µM | 44.5 µM |
| O=C(c1ccc(/C=C/c2n[nH]c3ccccc23)cc1)N1CCNCC1 | > 10 µM and 1.84 µM | > 10 µM and 8.66 µM | 1.5 µM and 3.47 µM | – | 1.81 µM and 12.2 µM | 3.33 µM and 27.2 µM | 1.72 µM and 11 µM | 3.52 µM and 26.5 µM | 2.04 µM and 2.44 µM | 4.77 µM and 15.3 µM | 1.54 µM and 2.58 µM | 2.9 µM and 15.5 µM | 5.02 µM and 3.12 µM | > 10 µM and 35.8 µM | 1.66 µM and 3.75 µM | 3.22 µM and 16.9 µM | 8.61 µM and 4.34 µM | > 10 µM and 18.9 µM | > 10 µM and 5.15 µM | > 10 µM and 20.4 µM |
